This is an account of results in ChEMBL document CHEMBL5665443, “Enzyme Inhibitor Single Concentration assay results for EUbOPEN Chemogenomics Library” (2024).

Assay [1] concerns the target T1, Single-strand selective monofunctional uracil DNA glycosylase (Homo sapiens) (UniProt Q53HV7).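 Further: enzymatic SMUG1 assay coupled with APE1, reading fluorescence at 594 nm released when a quenched double-stranded DNA oligonucleotide substrate is cleaved and separated.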
T1 sequence (whole entry): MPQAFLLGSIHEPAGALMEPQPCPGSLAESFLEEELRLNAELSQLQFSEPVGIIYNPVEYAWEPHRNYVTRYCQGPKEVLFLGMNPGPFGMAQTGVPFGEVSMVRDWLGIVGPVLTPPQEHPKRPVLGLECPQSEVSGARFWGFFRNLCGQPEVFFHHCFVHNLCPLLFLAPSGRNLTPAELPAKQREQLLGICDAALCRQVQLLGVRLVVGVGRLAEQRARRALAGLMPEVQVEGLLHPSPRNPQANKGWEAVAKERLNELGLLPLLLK
As to conditions: Compound Concentration 10.0 uM, Hit No.
Description: Inhibition of SMUG1 by quantifying inhibition of SMUG1-mediated cleavage and dissociation of quenched duplex DNA oligonucleotides, measured as fluorescence at 594 nm. To generate a functional strand incision and increase turn-over this assay is coupled to APE1.

In assay [2] the target is Uracil-DNA glycosylase (Homo sapiens) (UniProt P13051). Conditions: Compound Concentration 10.0 uM, Hit No.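 Further: UNG excision on a quenched double-stranded DNA oligo probe, with APE1 added for strand incision and turnover, read as fluorescence at 594 nm as strands separate.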
Description: Inhibition of UNG by quantifying inhibition of UNG-mediated cleavage and dissociation of quenched duplex DNA oligonucleotides, measured as fluorescence at 594 nm. To generate a functional strand incision and increase turn-over this assay is coupled to APE1.
The target in assay [3] is T2, Adenine DNA glycosylase (Homo sapiens) (UniProt Q9UIF7).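 Further: human MUTYH activity read as 594 nm fluorescence from cleavage and release of a quenched DNA duplex, coupled with APE1 for strand incision, lower signal meaning inhibition.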
T2 sequence (whole entry): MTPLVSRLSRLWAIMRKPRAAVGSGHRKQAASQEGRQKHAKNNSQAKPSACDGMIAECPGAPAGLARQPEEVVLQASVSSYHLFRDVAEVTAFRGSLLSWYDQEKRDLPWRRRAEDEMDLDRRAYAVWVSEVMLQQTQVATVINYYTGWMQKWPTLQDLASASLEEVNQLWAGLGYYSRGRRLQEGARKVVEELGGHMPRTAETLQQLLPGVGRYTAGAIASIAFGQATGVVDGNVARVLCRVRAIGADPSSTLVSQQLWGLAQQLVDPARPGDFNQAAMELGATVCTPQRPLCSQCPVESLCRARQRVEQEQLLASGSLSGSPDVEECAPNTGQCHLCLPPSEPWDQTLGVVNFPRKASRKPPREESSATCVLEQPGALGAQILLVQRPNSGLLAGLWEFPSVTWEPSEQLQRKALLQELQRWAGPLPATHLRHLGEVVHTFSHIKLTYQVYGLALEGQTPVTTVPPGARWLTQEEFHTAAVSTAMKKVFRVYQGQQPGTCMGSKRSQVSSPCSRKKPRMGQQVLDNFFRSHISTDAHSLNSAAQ
As to conditions: Compound Concentration 10.0 uM.
Description: Inhibition of MUTYH by quantifying inhibition of MUTYH-mediated cleavage and dissociation of quenched duplex DNA oligonucleotides, measured as fluorescence at 594 nm. To generate a functional strand incision and increase turn-over this assay is coupled to APE1.

The target in assay [4] is Endonuclease 8-like 1 (Homo sapiens) (UniProt Q96FI4). Conditions: Compound Concentration 10.0 uM, Hit No.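 Further: fluorescence at 594 nm from quenched duplex DNA oligonucleotides released by NEIL1 cleavage and strand separation, reported as reduction of this enzyme activity.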
Description: Inhibition of NEIL1 by quantifying inhibition of NEIL1-mediated cleavage and dissociation of quenched duplex DNA oligonucleotides, measured as fluorescence at 594 nm.
The target in assay [5] is DNA-3-methyladenine glycosylase (Homo sapiens) (UniProt P29372). Conditions: Compound Concentration 10.0 uM.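 Further: enzyme assay where MPG cuts a quenched duplex DNA oligonucleotide probe, paired with APE1 for strand incision and turnover, read as fluorescence at 594 nm.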
Description: Inhibition of MPG by quantifying inhibition of MPG-mediated cleavage and dissociation of quenched duplex DNA oligonucleotides, measured as fluorescence at 594 nm. To generate a functional strand incision and increase turn-over this assay is coupled to APE1.
The target of assay [6] is Methyl-CpG-binding domain protein 4 (Homo sapiens) (UniProt O95243). Conditions: Compound Concentration 10.0 uM.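 Further: MBD4 activity read as fluorescence at 594 nm from cleavage and release of a quenched duplex DNA oligonucleotide, with APE1 coupled to incise the strand and raise turnover.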
Description: Inhibition of MBD4 by quantifying inhibition of MBD4-mediated cleavage and dissociation of quenched duplex DNA oligonucleotides, measured as fluorescence at 594 nm. To generate a functional strand incision and increase turn-over this assay is coupled to APE1.
In assay [7] the target is T3, Endonuclease III-like protein 1 (Homo sapiens) (UniProt P78549).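 Further: enzyme assay tracking NTHL1 cutting and release of a quenched double-stranded DNA oligo substrate, read as fluorescence at 594 nm.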
T3 sequence (whole entry): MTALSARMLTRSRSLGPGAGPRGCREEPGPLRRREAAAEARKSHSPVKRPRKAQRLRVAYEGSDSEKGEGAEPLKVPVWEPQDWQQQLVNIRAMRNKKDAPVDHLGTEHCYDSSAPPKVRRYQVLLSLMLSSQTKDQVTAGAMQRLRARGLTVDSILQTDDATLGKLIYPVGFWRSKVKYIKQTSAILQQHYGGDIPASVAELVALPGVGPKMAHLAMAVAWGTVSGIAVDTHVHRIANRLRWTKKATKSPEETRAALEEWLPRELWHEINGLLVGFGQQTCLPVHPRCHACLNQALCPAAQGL
As to conditions: Compound Concentration 10.0 uM, Hit No.
Description: Inhibition of NTHL1 by quantifying inhibition of NTHL1-mediated cleavage and dissociation of quenched duplex DNA oligonucleotides, measured as fluorescence at 594 nm.

Assay [8] has as its target G/T mismatch-specific thymine DNA glycosylase (Homo sapiens) (UniProt Q13569). As to conditions: Compound Concentration 10.0 uM.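 Further: human TDG cleavage of quenched duplex DNA oligonucleotides coupled to APE1, strand release read as fluorescence at 594 nm, inhibition of TDG activity.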
Description: Inhibition of TDG by quantifying inhibition of TDG-mediated cleavage and dissociation of quenched duplex DNA oligonucleotides, measured as fluorescence at 594 nm. To generate a functional strand incision and increase turn-over this assay is coupled to APE1.
Assay [9] addresses T4, Endonuclease 8-like 2 (Homo sapiens) (UniProt Q969S2).
T4 sequence (whole entry): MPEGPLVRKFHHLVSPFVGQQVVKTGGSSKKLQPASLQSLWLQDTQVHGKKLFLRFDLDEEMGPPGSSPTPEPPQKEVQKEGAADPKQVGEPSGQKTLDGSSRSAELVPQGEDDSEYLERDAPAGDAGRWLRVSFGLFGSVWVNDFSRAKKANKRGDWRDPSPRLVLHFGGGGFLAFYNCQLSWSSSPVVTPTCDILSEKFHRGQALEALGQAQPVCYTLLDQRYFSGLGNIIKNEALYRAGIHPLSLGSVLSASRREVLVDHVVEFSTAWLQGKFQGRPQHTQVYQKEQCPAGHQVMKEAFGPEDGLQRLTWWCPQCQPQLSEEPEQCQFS
Conditions: Compound Concentration 10.0 uM, Hit No.
Description: Inhibition of NEIL2 by quantifying inhibition of NEIL2-mediated cleavage and dissociation of quenched duplex DNA oligonucleotides, measured as fluorescence at 594 nm.

The target of assay [10] is N-glycosylase/DNA lyase (Homo sapiens) (UniProt O15527). As to conditions: Compound Concentration 10.0 uM.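 Further: OGG1 cleavage of a quenched duplex DNA oligonucleotide, coupled to APE1 for strand incision, read as fluorescence at 594 nm.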
N-glycosylase/DNA lyase (Homo sapiens), sequence (O15527 whole entry): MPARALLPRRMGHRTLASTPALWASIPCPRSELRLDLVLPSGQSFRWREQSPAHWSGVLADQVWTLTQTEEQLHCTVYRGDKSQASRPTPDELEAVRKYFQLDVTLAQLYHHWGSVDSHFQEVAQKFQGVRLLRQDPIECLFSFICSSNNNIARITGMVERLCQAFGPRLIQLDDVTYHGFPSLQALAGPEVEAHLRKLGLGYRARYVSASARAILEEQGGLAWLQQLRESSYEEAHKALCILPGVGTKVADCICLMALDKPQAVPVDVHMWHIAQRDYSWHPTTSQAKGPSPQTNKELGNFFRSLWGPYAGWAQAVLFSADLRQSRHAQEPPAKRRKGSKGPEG
Description: Inhibition of OGG1 by quantifying inhibition of OGG1-mediated cleavage and dissociation of quenched duplex DNA oligonucleotides, measured as fluorescence at 594 nm. To generate a functional strand incision and increase turn-over this assay is coupled to APE1.

Uracil-DNA glycosylase (Homo sapiens), sequence (P13051 whole entry): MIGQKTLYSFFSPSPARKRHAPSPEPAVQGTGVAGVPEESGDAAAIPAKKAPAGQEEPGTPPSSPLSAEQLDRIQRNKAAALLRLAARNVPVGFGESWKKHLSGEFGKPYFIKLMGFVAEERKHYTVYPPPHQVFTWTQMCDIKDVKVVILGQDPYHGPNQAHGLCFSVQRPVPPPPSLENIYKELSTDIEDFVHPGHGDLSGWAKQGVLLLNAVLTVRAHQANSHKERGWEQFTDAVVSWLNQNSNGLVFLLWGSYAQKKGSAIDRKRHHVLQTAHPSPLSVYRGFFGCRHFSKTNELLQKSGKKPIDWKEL
G/T mismatch-specific thymine DNA glycosylase (Homo sapiens), sequence (Q13569 whole entry): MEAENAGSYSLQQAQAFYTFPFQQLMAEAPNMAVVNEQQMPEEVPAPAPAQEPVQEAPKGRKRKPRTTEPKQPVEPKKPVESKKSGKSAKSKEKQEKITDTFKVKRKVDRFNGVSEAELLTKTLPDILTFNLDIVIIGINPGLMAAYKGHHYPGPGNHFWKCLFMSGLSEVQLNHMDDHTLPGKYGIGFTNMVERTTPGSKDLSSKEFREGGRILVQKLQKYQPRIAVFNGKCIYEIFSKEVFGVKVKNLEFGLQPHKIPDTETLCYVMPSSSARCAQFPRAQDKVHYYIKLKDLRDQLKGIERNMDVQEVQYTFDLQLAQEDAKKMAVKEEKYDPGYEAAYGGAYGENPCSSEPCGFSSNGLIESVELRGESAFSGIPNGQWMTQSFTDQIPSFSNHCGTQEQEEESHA
Endonuclease 8-like 1 (Homo sapiens), sequence (Q96FI4 whole entry): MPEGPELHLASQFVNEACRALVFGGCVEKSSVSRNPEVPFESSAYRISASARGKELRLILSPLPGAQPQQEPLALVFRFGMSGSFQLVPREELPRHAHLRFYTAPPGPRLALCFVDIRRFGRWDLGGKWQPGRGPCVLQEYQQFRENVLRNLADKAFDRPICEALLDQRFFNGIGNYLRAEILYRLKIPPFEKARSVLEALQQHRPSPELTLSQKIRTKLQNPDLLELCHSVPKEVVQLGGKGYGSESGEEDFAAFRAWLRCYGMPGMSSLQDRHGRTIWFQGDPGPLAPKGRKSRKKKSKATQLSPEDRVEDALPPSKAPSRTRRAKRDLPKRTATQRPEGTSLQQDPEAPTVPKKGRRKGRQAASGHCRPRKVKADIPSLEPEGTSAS
Methyl-CpG-binding domain protein 4 (Homo sapiens), sequence (O95243 whole entry, the tested form may be a part): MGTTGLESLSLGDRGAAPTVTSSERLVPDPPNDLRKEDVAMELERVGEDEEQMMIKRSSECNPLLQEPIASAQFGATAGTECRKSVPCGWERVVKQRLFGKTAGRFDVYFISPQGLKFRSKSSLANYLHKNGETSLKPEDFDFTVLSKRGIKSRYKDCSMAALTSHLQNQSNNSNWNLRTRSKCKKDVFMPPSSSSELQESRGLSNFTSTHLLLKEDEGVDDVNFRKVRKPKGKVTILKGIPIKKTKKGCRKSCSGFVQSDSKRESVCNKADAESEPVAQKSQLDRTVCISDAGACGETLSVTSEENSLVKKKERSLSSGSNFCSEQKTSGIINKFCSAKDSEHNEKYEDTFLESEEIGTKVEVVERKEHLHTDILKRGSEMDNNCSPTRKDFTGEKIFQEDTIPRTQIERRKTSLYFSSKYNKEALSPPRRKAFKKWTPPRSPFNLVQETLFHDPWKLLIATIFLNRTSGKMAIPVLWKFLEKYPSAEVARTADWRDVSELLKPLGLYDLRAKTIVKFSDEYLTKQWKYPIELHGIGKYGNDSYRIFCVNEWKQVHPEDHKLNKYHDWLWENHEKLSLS
DNA-3-methyladenine glycosylase (Homo sapiens), sequence (P29372 whole entry, the tested form may be a part): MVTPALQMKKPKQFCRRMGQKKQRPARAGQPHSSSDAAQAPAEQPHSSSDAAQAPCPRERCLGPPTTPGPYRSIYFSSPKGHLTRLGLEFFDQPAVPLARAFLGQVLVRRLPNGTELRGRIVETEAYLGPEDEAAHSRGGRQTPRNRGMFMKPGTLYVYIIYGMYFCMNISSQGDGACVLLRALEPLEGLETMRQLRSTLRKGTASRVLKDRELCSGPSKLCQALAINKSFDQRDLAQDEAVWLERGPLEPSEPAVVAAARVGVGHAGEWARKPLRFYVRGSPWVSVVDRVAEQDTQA

In the case of `CC(C)(O)c1ccc2c(c1)ncn2-c1cccc(-c2ccccc2C#N)c1`, the inhibition was 1% in assay [1]; -7.68% in assay [2]; -2.7% in assay [3] (Hit No); -1.62% in assay [4]; 3.49% in assay [5] (Hit No); 26.4% in assay [6] (Hit No). Also, the inhibition is 12.1% in assay [7] and -5.39% in assay [8] (Hit No).
On to `CC(C)(C)c1ccc(NC(=O)N2CCN(c3ncccc3Cl)CC2)cc1`, for which the inhibition was -0.579% in [1]; -5.92% in assay [2]; -0.729% in assay [3] (Hit No); -1.77% in assay [4]; 9.36% in assay [5] (Hit No); 8.84% in assay [6] (Hit No). The inhibition in assay [7] came out at 21.2%; in assay [8] (Hit No), 11%.
Take `Brc1c(NC2=NCCN2)ccc2nccnc12`: the inhibition in assay [1] was -5.99%; in assay [3] (Hit No) it was -8.17%; in assay [4] it was -5.69%; in assay [9], 6.5%; in [5] (Hit No) it was -8.07%; in assay [6] (Hit Yes), 140%. Also, the inhibition is -4.67% in assay [7] and 1.79% in assay [8] (Hit No).
Take `c1ccc(Cn2c(N3CCNCC3)nc3ccccc32)cc1`: the inhibition is -7.26% in assay [2]; 0.413% in [3] (Hit No); -7.05% in [10] (Hit No); 3.42% in assay [4]; -2.13% in [9]; 2.45% in assay [5] (Hit No). Besides, the inhibition in assay [6] (Hit No) is -1.45%; in assay [7] it was 25.3%; in assay [8] (Hit No), -3.94%.
Consider `COc1ccc(CC(=O)NC(N/C(=N/C#N)Nc2cccc3ncccc23)C(C)(C)C)cc1OC` (stereo unspecified), for which the inhibition in assay [2] is -5.2%; in assay [3] (Hit No), 7.91%; in assay [10] (Hit No), -8%; in assay [4], 3.12%; in [9], 1.94%; in assay [5] (Hit No), 7.8%. Also, the inhibition in [6] (Hit No) is -7.77%; in assay [7], 16.2%; in assay [8] (Hit No), 7.3%.
For `CC(C)C[C@H](NC(=O)[C@H](CC(N)=O)NC(=O)[C@@H]1CCCN1C(=O)[C@@H](N)C(C)C)C(=O)N1CCC[C@H]1C(=O)N[C@@H](CCC(N)=O)C(=O)N[C@@H](CCCNC(=N)N)C(=O)N[C@@H](Cc1ccccc1)C(N)=O`, the inhibition in [2] was -4.09%; in assay [3] (Hit No), -3.17%; in [10] (Hit No), -4.66%; in assay [4] it was 5.49%; in assay [9], 4.75%; in [5] (Hit No), 2.54%. Moreover, the inhibition is 7.14% in assay [6] (Hit No), 17.1% in assay [7] and 4.58% in assay [8] (Hit No).
With `CCCN(CCc1cccs1)[C@H]1CCc2c(O)cccc2C1`, the inhibition in assay [2] is -4.64%; in assay [3] (Hit No) it was 14.9%; in [10] (Hit No), -7.03%; in assay [4], -8.88%; in assay [9] it was -1.88%; in assay [5] (Hit No) it was 14.7%. The inhibition in assay [6] (Hit No) stood at 27.8%; in [7], 18.7%; in assay [8] (Hit No), 8.18%.
In the case of `CCCN(CCC)[C@@H]1CCc2ccc3[nH]c(C#N)cc3c2C1`, the inhibition in assay [2] is -7.96%; in assay [3] (Hit No), 46.8%; in assay [10] (Hit No), 5.74%; in assay [4] it was -4.73%; in [9] it was 9.08%; in [5] (Hit No) it was 27.5%. For the same compound, the values for the inhibition in assay [6] (Hit No), in assay [7] and in assay [8] (Hit No) were 35.8%, -5.21% and 30%, respectively.
Take `C[C@@H](Cn1c(=O)[nH]/c(=N\c2ccc(Oc3ccccn3)cc2)n(Cc2ccc(Cl)cc2)c1=O)C(=O)O`: the inhibition in assay [2] is -3.28%; in [3] (Hit No), 14.4%; in assay [10] (Hit No), -4.95%; in [4] it was 5.49%; in [9], 5.25%; in [5] (Hit No) it was 14.7%. For the same compound, the figures for the inhibition in assay [6] (Hit No), in assay [7] and in assay [8] (Hit No) were 25.3%, 24.5% and 23.6%, respectively.
On to `COc1cccc(OC)c1-c1cc(C(=O)NC2(C(=O)O)C3CC4CC(C3)CC2C4)nn1-c1ccnc2cc(Cl)ccc12` (stereo unspecified), for which the inhibition in assay [2] is -7.21%; in assay [3] (Hit No), 53.6%; in assay [10] (Hit No) it was 23.9%; in [4], -4.95%; in assay [9], -7.72%; in assay [5] (Hit No) it was 18.6%. The inhibition in [6] (Hit No) amounted to 44.5%; in assay [7], 24.6%; in assay [8] (Hit No), 45.2%.
`O=C(O)CCCCCC[C@H]1C(=O)NC(=O)N1CCC(O)C1CCCCC1` (stereo partly specified): the inhibition is -5.39% in assay [2]; 39.4% in [3] (Hit No); -6.34% in [10] (Hit No); -4.58% in [4]; -1.37% in assay [9]; -5.01% in assay [5] (Hit No). Besides, the inhibition in [6] (Hit No) was determined as 9.44%; in assay [7] it was 23.7%; in assay [8] (Hit No), 11%.
`CCCCCCNC(=O)Nc1ccc(S(=O)(=O)Nc2ccc(CCNC[C@H](O)COc3ccc(O)cc3)cc2)cc1`: the inhibition in assay [2] is 5.25%; in [3] (Hit Yes), 107%; in [10] (Hit No), 3.62%; in [4] it was -4.58%; in assay [9] it was -3.66%; in assay [5] (Hit Yes), 105%. In addition, the inhibition in [6] (Hit Yes) was determined as 102%; in assay [7] it was 10.5%; in [8] (Hit Yes), 105%.
For the compound `CN1CCc2cc(Cl)c(O)cc2[C@@H](c2ccccc2)C1`, the inhibition is -3.84% in assay [2]; 14.8% in [3] (Hit No); -2.12% in [10] (Hit No); -6.51% in assay [4]; 3.22% in assay [9]; 10.9% in assay [5] (Hit No). The results for the inhibition in assay [6] (Hit No), in assay [7] and in assay [8] (Hit No) were 14.5%, 4.7% and 3.73%, respectively.
In the case of `O=C(O)c1cccc(/C=C2/C[C@@H]3[C@@H](/C=C/[C@H](O)C4CCCCC4)[C@H](O)C[C@@H]3O2)c1`, the inhibition is -4.36% in assay [2]; 18.1% in assay [3] (Hit No); -8.69% in assay [10] (Hit No); -8.73% in [4]; -5.7% in [9]; 18.3% in assay [5] (Hit No). Moreover, the values for the inhibition in [6] (Hit No), in assay [7] and in assay [8] (Hit No) were 16.8%, 15.4% and 21.2%, respectively.
On to `Cc1ccccc1C#Cc1ccc(CCC(=O)O)cc1`, for which the inhibition was -2.61% in assay [2]; 12.8% in [3] (Hit No); 8.7% in [10] (Hit No); -4.44% in assay [4]; 1.69% in [9]; 10.7% in assay [5] (Hit No). Moreover, the inhibition was determined as 11.2% in [6] (Hit No), 6.35% in [7] and 14.4% in assay [8] (Hit No).
Turning to `O=c1cc(-c2cc(F)c(Cl)nc2Cl)[nH]c2c(-c3ccccc3)c(C(F)(F)F)nn12`, the inhibition is 1.49% in assay [2]; 63.1% in assay [3] (Hit No); 60.4% in assay [10] (Hit Yes); -6.07% in [4]; 16% in assay [9]; 43.4% in assay [5] (Hit No). In addition, the inhibition in assay [6] (Hit No) turned out to be 66.3%; in assay [7], 8%; in assay [8] (Hit No), 54.8%.
